In patent US20050197350A1, “Novel quinoline, tetrahydroquinazoline, and pyrimidine derivatives and methods of treatment related to the use thereof” (TAISHO PHARMACEUTICAL CO., LTD., priority 2003, published 2005):

system: MCH receptors; test: MCH receptor activity class (method not given); settings: class by percent of control at 10^-7 M or IC50

SMILES | class
CN(C)c1nc(N[C@H]2CC[C@@H](CNC(=O)c3cc(C(F)(F)F)cc(C(F)(F)F)c3)CC2)nc2c1CCCC2 [compound 640] | 3 (Class 3 The value of percent of control at 10^−7 M was more than 60% or the value of IC50 was more than 200 nM.)
CN(C)c1nc(N[C@H]2CC[C@@H](CNC(=O)/C=C/c3ccc([N+](=O)[O-])cc3)CC2)nc2c1CCCC2 [compound 641] | 2 (Class 2: The value of percent of control at 10^−7 M was from 40% to 60% or the value of IC′50 was from 50 nM to 200 nM.)
CN(C)c1nc(N[C@H]2CC[C@@H](CNC(=O)Cc3ccccc3Br)CC2)nc2c1CCCC2 [compound 642] | 3 (Class 3 The value of percent of control at 10^−7 M was more than 60% or the value of IC50 was more than 200 nM.)
Cc1cc(C(=O)NC[C@H]2CC[C@@H](Nc3nc4c(c(N(C)C)n3)CCCC4)CC2)ccc1F [compound 643] | 2 (Class 2: The value of percent of control at 10^−7 M was from 40% to 60% or the value of IC′50 was from 50 nM to 200 nM.)
CN(C)c1nc(N[C@H]2CC[C@@H](CNC(=O)c3ccccc3SC(F)F)CC2)nc2c1CCCC2 [compound 644] | 3 (Class 3 The value of percent of control at 10^−7 M was more than 60% or the value of IC50 was more than 200 nM.)
CN(C)c1nc(N[C@H]2CC[C@@H](CNC(=O)c3cc(Cl)sc3Cl)CC2)nc2c1CCCC2 [compound 645] | 3 (Class 3 The value of percent of control at 10^−7 M was more than 60% or the value of IC50 was more than 200 nM.)
CCCSc1ncccc1C(=O)NC[C@H]1CC[C@@H](Nc2nc3c(c(N(C)C)n2)CCCC3)CC1 [compound 646] | 1 (Class 1: The value of percent of control at 10^−7 M was less than 40% or the value of IC50 was less than 50 nM.)
CN(C)c1nc(N[C@H]2CC[C@@H](CNC(=O)c3cc(C(C)(C)C)nn3Cc3ccccc3)CC2)nc2c1CCCC2 [compound 647] | 3 (Class 3 The value of percent of control at 10^−7 M was more than 60% or the value of IC50 was more than 200 nM.)
CN(C)c1nc(N[C@H]2CC[C@@H](CNC(=O)c3cc(C(C)(C)C)nn3C)CC2)nc2c1CCCC2 [compound 648] | 3 (Class 3 The value of percent of control at 10^−7 M was more than 60% or the value of IC50 was more than 200 nM.)
C/C(=C\c1ccccc1)C(=O)NC[C@H]1CC[C@@H](Nc2nc3c(c(N(C)C)n2)CCCC3)CC1 [compound 649] | 3 (Class 3 The value of percent of control at 10^−7 M was more than 60% or the value of IC50 was more than 200 nM.)
CN(C)c1nc(N[C@H]2CC[C@@H](CNC(=O)c3cncc(Br)c3)CC2)nc2c1CCCC2 [compound 650] | 3 (Class 3 The value of percent of control at 10^−7 M was more than 60% or the value of IC50 was more than 200 nM.)
CN(C)c1nc(N[C@H]2CC[C@@H](CNC(=O)Cc3cccc4ccccc34)CC2)nc2c1CCCC2 [compound 651] | 3 (Class 3 The value of percent of control at 10^−7 M was more than 60% or the value of IC50 was more than 200 nM.)
Cc1cc(C(=O)NC[C@H]2CC[C@@H](Nc3nc4c(c(N(C)C)n3)CCCC4)CC2)nn1C(C)(C)C [compound 652] | 3 (Class 3 The value of percent of control at 10^−7 M was more than 60% or the value of IC50 was more than 200 nM.)
CN(C)c1nc(N[C@H]2CC[C@@H](CNC(=O)c3csc4ccccc34)CC2)nc2c1CCCC2 [compound 653] | 3 (Class 3 The value of percent of control at 10^−7 M was more than 60% or the value of IC50 was more than 200 nM.)
CN(C)c1nc(N[C@H]2CC[C@@H](CNC(=O)c3ccc(-c4ccccc4)cc3)CC2)nc2c1CCCC2 [compound 654] | 3 (Class 3 The value of percent of control at 10^−7 M was more than 60% or the value of IC50 was more than 200 nM.)
CN(C)c1nc(N[C@H]2CC[C@@H](CNC(=O)c3ccccc3Br)CC2)nc2c1CCCC2 [compound 655] | 3 (Class 3 The value of percent of control at 10^−7 M was more than 60% or the value of IC50 was more than 200 nM.)
CN(C)c1nc(N[C@H]2CC[C@@H](CNC(=O)c3c(Cl)cccc3Cl)CC2)nc2c1CCCC2 [compound 656, 2,6-dichloro-N-[(cis-4-{[4-(dimethylamino)-5,6,7,8-tetrahydroquinazolin-2-yl]amino}cyclohexyl)methyl]benzamide] | 2 (Class 2: The value of percent of control at 10^−7 M was from 40% to 60% or the value of IC′50 was from 50 nM to 200 nM.)
CN(C)c1nc(N[C@H]2CC[C@@H](CNC(=O)c3ccccc3I)CC2)nc2c1CCCC2 [compound 657] | 3 (Class 3 The value of percent of control at 10^−7 M was more than 60% or the value of IC50 was more than 200 nM.)
Cc1ccccc1C(=O)NC[C@H]1CC[C@@H](Nc2nc3c(c(N(C)C)n2)CCCC3)CC1 [compound 658] | 3 (Class 3 The value of percent of control at 10^−7 M was more than 60% or the value of IC50 was more than 200 nM.)
CN(C)c1nc(N[C@H]2CC[C@@H](CNC(=O)c3cccc(Cl)c3Cl)CC2)nc2c1CCCC2 [compound 659] | 3 (Class 3 The value of percent of control at 10^−7 M was more than 60% or the value of IC50 was more than 200 nM.)
CN(C)c1nc(N[C@H]2CC[C@@H](CNC(=O)c3cc(F)ccc3Cl)CC2)nc2c1CCCC2 [compound 660] | 3 (Class 3 The value of percent of control at 10^−7 M was more than 60% or the value of IC50 was more than 200 nM.)
CN(C)c1nc(N[C@H]2CC[C@@H](CNC(=O)c3cccc4c3-c3ccccc3C4=O)CC2)nc2c1CCCC2 [compound 661] | 3 (Class 3 The value of percent of control at 10^−7 M was more than 60% or the value of IC50 was more than 200 nM.)
CN(C)c1nc(N[C@H]2CC[C@@H](CNC(=O)c3c(F)ccc(F)c3F)CC2)nc2c1CCCC2 [compound 662] | 3 (Class 3 The value of percent of control at 10^−7 M was more than 60% or the value of IC50 was more than 200 nM.)
CN(C)c1nc(N[C@H]2CC[C@@H](CNC(=O)c3cccc(F)c3F)CC2)nc2c1CCCC2 [compound 663] | 3 (Class 3 The value of percent of control at 10^−7 M was more than 60% or the value of IC50 was more than 200 nM.)
CN(C)c1nc(N[C@H]2CC[C@@H](CNC(=O)c3c(F)cccc3F)CC2)nc2c1CCCC2 [compound 664] | 3 (Class 3 The value of percent of control at 10^−7 M was more than 60% or the value of IC50 was more than 200 nM.)
CN(C)c1nc(N[C@H]2CC[C@@H](CNC(=O)c3c(F)cccc3C(F)(F)F)CC2)nc2c1CCCC2 [compound 665] | 3 (Class 3 The value of percent of control at 10^−7 M was more than 60% or the value of IC50 was more than 200 nM.)
Cc1cc(C)c(C(=O)NC[C@H]2CC[C@@H](Nc3nc4c(c(N(C)C)n3)CCCC4)CC2)c(C)c1 [compound 666] | 2 (Class 2: The value of percent of control at 10^−7 M was from 40% to 60% or the value of IC′50 was from 50 nM to 200 nM.)
CN(C)c1nc(N[C@H]2CC[C@@H](CNC(=O)c3c(F)cccc3Cl)CC2)nc2c1CCCC2 [compound 667] | 2 (Class 2: The value of percent of control at 10^−7 M was from 40% to 60% or the value of IC′50 was from 50 nM to 200 nM.)
CN(C)c1nc(N[C@H]2CC[C@@H](CNC(=O)c3c(Cl)cc(Cl)cc3Cl)CC2)nc2c1CCCC2 [compound 668, 2,4,6-trichloro-N-[(cis-4-{[4-(dimethylamino)-5,6,7,8-tetrahydroquinazolin-2-yl]amino}cyclohexyl)methyl]benzamide] | 1 (Class 1: The value of percent of control at 10^−7 M was less than 40% or the value of IC50 was less than 50 nM.)
